How the values were obtained:
Type in all cases: physicochemical
[1] = Dissolution test of torasemide in water (USP 23); details: for % Dissolved torasemide: water, USP 23, 37° C., 50 rpm., 1000 ml
Protocol: (§1) The microcrystallinic modifications I, II and III of torasemide prepared according to Acta Crst. B34 (1978), 1304-1310 and Example 1 were subjected to dissolution testing in water, and in artificial intestinal juice, at 37° C.

[2] = Stability of the crystal modification on storage and at increased humidity
[3] = Dissolution test in artificial intestinal juice (USP 23)
Protocol: as §1

[4] = Intrinsic Dissolution Rate in a model of artificial gastric juice

Row | % Dissolved torasemide ([1]; 0 minutes) [%] | % Dissolved torasemide ([1]; 10 minutes) [%] | % Dissolved torasemide ([1]; 20 minutes) [%] | % Dissolved torasemide ([1]; 30 minutes) [%] | % Dissolved torasemide ([1]; 40 minutes) [%] | % Dissolved torasemide ([1]; 50 minutes) [%] | % Dissolved torasemide ([1]; 60 minutes) [%] | stability of the crystal modification (no transformation into modification I or II) ([2]; normal storage conditions) | stability of the crystal modification (no transformation into modification I or II) ([2]; subjected to increased humidity) | dissolution profile (USP 23) in comparison to known crystal modifications I and II [3] | dissolution profile (USP 23) in comparison to known crystal modifications I and II ([1]; in water) | IDR (Intrinsic Dissolution Rate) [4] | Compound
1 | 0 | 15.1 | 27.8 | 39.2 | 48.8 | 56.3 | 65.1 | – | – | – | – | – | Cc1cccc(Nc2ccncc2S(=O)(=O)NC(=O)NC(C)C)c1 [Mod. II, N-(1-methylethylaminocarbonyl)-4-(3-methyl-phenylamino)-3-pyridinesulfonamide]
2 | 0 | 15.6 | 28.1 | 37.7 | 43.6 | 48.5 | 51.1 | stable | stable | significant difference | significant difference | exceeds 1 mg cm^−2min^−1 | Cc1cccc(Nc2ccncc2S(=O)(=O)NC(=O)NC(C)C)c1 [Mod. III, N-(1-methylethylaminocarbonyl)-4-(3-methyl-phenylamino)-3-pyridinesulfonamide]
3 | 0 | 6.7 | 13.0 | 18.5 | 23.5 | 28.5 | 32.8 | – | – | – | – | – | Cc1cccc(Nc2ccncc2S(=O)(=O)NC(=O)NC(C)C)c1 [Mod. I, N-(1-methylethylaminocarbonyl)-4-(3-methyl-phenylamino)-3-pyridinesulfonamide]
